We go through 20 compounds from patent publication US11992012B2, “Diaminotriazine compounds” (BASF SE, priority 2018, dated 2024).

Molecules are shown by their SMILES.

What all share (experiment): greenhouse pre-emergence herbicidal test
What all share (type): in vivo
What all share (settings): 250 g/ha, scale 0 to 100

The subject of test [1] is Amaranthus retroflexus. From the text: (§1) The culture containers used were plastic flowerpots containing loamy sand with approximately 3.0% of humus as the substrate. The seeds of the test plants were sown separately for each species.
(§2) For the pre-emergence treatment, the active ingredients, which had been suspended or emulsified in water, were applied directly after sowing by means of finely distributing nozzles. The containers were irrigated gently to promote germination and growth and subsequently covered with transparent plastic hoods until the plants had rooted. This cover caused uniform germination of the test plants, unless this had been impaired by the active ingredients.
(§3) Depending on the species, the plants were kept at 10-25° C. or 20-35° C., respectively.
(§4) The test period extended over 2 to 4 weeks. During this time, the plants were tended, and their response to the individual treatments was evaluated.
(§5) Evaluation was carried out using a scale from 0 to 100. 100 means no emergence of the plants, or complete destruction of at least the aerial moieties, and 0 means no damage, or normal course of growth. A moderate herbicidal activity is given at values of at least 60, a good herbicidal activity is given at values of at least 70, and a very good herbicidal activity is given at values of at least 85.

Test [2] deals with Echinocloa crus-galli.
Excerpt: as §1, §2, §3, §4, §5

Test [3] concerns Setaria faberi. The source says:
The culture containers used were plastic flowerpots containing loamy sand with approximately 3.0% of humus as the substrate. The seeds of the test plants were sown separately for each species. For the pre-emergence treatment, the active ingredients, which had been suspended or emulsified in water, were applied directly after sowing by means of finely distributing nozzles. The containers were irrigated gently to promote germination and growth and subsequently covered with transparent plastic hoods until the plants had rooted. This cover caused uniform germination of the test plants, unless this had been impaired by the active ingredients. […] The test period extended over 2 to 4 weeks. During this time, the plants were tended, and their response to the individual treatments was evaluated. Evaluation was carried out using a scale from 0 to 100. 100 means no emergence of the plants, or complete destruction of at least the aerial moieties, and 0 means no damage, or normal course of growth.

For the compound `CC(C)(F)c1nc(N)nc(Nc2c(F)cccc2OCc2ccc(F)cc2)n1` [Example 6], the herbicidal activity in test [1], in test [2] and in test [3] was 100% each time.
In the case of `CCC(C)(F)c1nc(N)nc(Nc2c(F)c(F)cc(F)c2OCc2ccccc2)n1` (stereo not shown) [Example 247], the herbicidal activity in test [1], in test [2] and in test [3] was 100% in each case.
Turning to `CC(C)(F)c1nc(N)nc(Nc2c(OC(F)(F)c3cccc(F)c3)cc(F)c(F)c2F)n1` [Example 129], the herbicidal activity in test [1], in test [2] and in test [3] was 100% throughout.
On to `CC(C)(F)c1nc(N)nc(Nc2c(F)ccc(F)c2OC(F)(F)c2ccccc2)n1` [Example 142], for which the herbicidal activity in test [1], in test [2] and in test [3] was 100% in each case.
As for `CC(C)(F)c1nc(N)nc(Nc2c(F)c(Br)cc(Br)c2OCc2ccccc2)n1` [Example 235], the herbicidal activity in test [1] came out at 85%; in test [2] it was 90%; in test [3], 100%.
As for `CC(C)c1nc(N)nc(Nc2c(F)cccc2OCc2ccccc2)n1` [Example 194], the herbicidal activity in test [2] is recorded as 100%; in test [3], 70%.
The matching figures for `CC(Oc1cccc(F)c1Nc1nc(N)nc(C(C)(C)F)n1)c1ccccc1` (stereo not shown) [Example 23]: 100% and 75%.
The matching figures for `COC(C)(C)c1nc(N)nc(Nc2c(F)cccc2OCc2cccc(F)c2)n1` [Example 114]: 90% and 90%.
The matching figures for `CC1(c2nc(N)nc(Nc3c(F)cccc3OCc3ccccc3)n2)CCC1` [Example 52]: 90% and 85%.
Consider `CC(F)c1nc(N)nc(Nc2c(F)cccc2OCc2ccccc2)n1` (stereo not shown) [Example 161], for which the herbicidal activity in test [2] and in test [3] was 100% each time.
For the compound `CC(C)=C(F)c1nc(N)nc(Nc2c(F)cccc2OCc2ccccc2)n1` [Example 152], the herbicidal activity came to 100% in test [1] and 90% in test [3].
Turning to `COc1cccc(COc2c(F)cc(F)c(F)c2Nc2nc(N)nc(C(C)(C)OC)n2)c1` [Example 215], the values for the herbicidal activity in test [1], in test [2] and in test [3] were 100%, 98% and 98%, respectively.
For the compound `COc1ccc(COc2c(F)ccc(F)c2Nc2nc(N)nc(C(C)(C)F)n2)cc1` [Example 192], the herbicidal activity in test [2] and in test [3] was 100% throughout.
On to `CC(C)(F)c1nc(N)nc(Nc2c(F)ccc(C#N)c2OCc2ccccc2)n1` [Example 259], for which the herbicidal activity in test [1] and in test [3] was 100% in each case.
Regarding `CC(C)(F)c1nc(N)nc(Nc2c(F)cccc2OCc2csc(Cl)c2)n1` [Example 110], the results for the herbicidal activity in test [2] and in test [3] were 90% and 80%, respectively.
Regarding `CCc1ccc(COc2c(F)ccc(F)c2Nc2nc(N)nc(C(C)(C)F)n2)cc1` [Example 140], the herbicidal activity in test [2] came to 98%; in test [3], 100%.
For the compound `CC(C)(F)c1nc(N)nc(Nc2c(F)cccc2OCc2nccs2)n1` [Example 36], the herbicidal activity is 100% in test [1] and 75% in test [2].
As for `CCCC(F)c1nc(N)nc(Nc2c(OCc3ccccc3)cc(F)c(F)c2F)n1` (stereo not shown) [Example 169], the figures for the herbicidal activity in test [1] and in test [3] were 80% and 85%, respectively.
On to `COc1c(F)cc(COc2cccc(F)c2Nc2nc(N)nc(C(C)(C)F)n2)cc1F` [Example 73], for which the results for the herbicidal activity in test [1] and in test [2] were 70% and 75%, respectively.
The matching figures for `CC(C)(F)c1nc(N)nc(Nc2c(F)cccc2OCc2cc(F)cc(F)c2F)n1` [Example 74]: 80% and 85%.
